What was measured:
[1] = system: menschliche Nase; assay: Odour perception test on about 100 human subjects (agonist, antagonist, agonist again); type: in vivo
Text: An ca. 100 Probanden wurde die Wirkung des Agonisten (Bourgeonal, "Duft A") und des Antagonisten (n-Undecanal, "Duft B") getestet. Dabei wurde zuerst an Duft A (1:100 verdünnt) gerochen, dann wurde in kurzem zeitlichen Abstand (1 - 3 s) an Duft B (ebenfalls 1:100 verdünnt) gerochen, anschließend wurde direkt wieder an Duft A gerochen. Die Probanden wurden nach ihrem Riecheindruck befragt: • Alle 100 Probanden konnten beim jeweils ersten Riechen spezifisch Duft A und B wahrnehmen und unterscheiden. Ca. 90 der 100 Testpersonen beschrieben, dass beim zweiten Riechen an Duft A kein Dufteindruck ausgelöst wurde. Nach ca. 1 Minute war Duft A bereits wieder riechbar.

[2] = system: humane Spermien; assay: Sperm orientation towards capillary tip (CAVMA, circular statistics, Rayleigh test); type: cell-based, human; conditions: Bourgeonal 10^-8 M and higher
Text: Zur Bestimmung der Chemoattraktion von Spermien und des Effekts eines Antagonisten wurde Bourgeonal allein bei 10^-7 M und in Kombination mit 10^-6, 10^-7, 10^-8 oder 10^-9 M n-Undecanal getestet. Während der Durchführung der Chemotaxis-Bioassays wurde das Spermienverhalten innerhalb eines Bereiches von 300 µm vor jeder Kapillarspitze 30 Sekunden lang auf Video aufgenommen. Die Videoaufnahme begann 10 bis 15 Minuten nach dem Experimentbeginn, um die Bildung eines chemischen Gradienten zu ermöglichen. Die Spermien-Orientierung zum Gradienten hin wurde unter Verwendung von CAVMA quantifiziert. Durch Anwendung zirkulärer Statistiken wurde die mittlere Vektorlänge (r) und die Schwimmrichtung berechnet, um das Bewegungsmuster der untersuchten Spermien zu beschreiben. Der Winkel der Spermienorientierung wurde in Bezug auf einen Ursprung angegeben, der als die kürzeste Verbindung zwischen jeder individuellen Zelle und der Kapillarenspitze (0°) definiert wurde. Um zu bestimmen, ob die Zellbewegung innerhalb des chemischen Gradienten nicht-zufällig war, wurde jede mittlere Ausrichtung mit einer uniformen zirkulären Verteilung unter Verwendung eines unimodalen Rayleigh-Tests (J. H. Zar, Biostatistical Analysis (1984)) verglichen.

SMILES	Testpersonen ohne Dufteindruck beim zweiten Riechen an Duft A ([1]; Duft B 1:100 sniffed 1 - 3 s after Duft A 1:100, then Duft A again)	Zeit, nach der Duft A wieder riechbar war ([1]; after sniffing Duft B)	Zellbewegungsmuster in der Nähe der Kapillarspitzen [2]	mittlere Vektorlänge (r), Rayleigh-Test ([2]; all comparisons)
CCCCCCCCCCC=O [n-Undecanal]	Ca. 90 der 100 Testpersonen	ca. 1 Minute	–	–
CC(C)(C)c1ccc(CCC=O)cc1 [Bourgeonal]	–	–	signifikant nicht-zufällig	≥ 0,45

Reference: EP1551873B1, “AGONISTS AND ANTAGONISTS OF THE HUMAN ODORANT RECEPTOR OR17-4 AND USES THEREOF” (Symrise AG, priority 2002, dated 2004)
